Species: Rattus norvegicus
Assay: Open TG-GATES - Regimen: Daily Repeat
Format: toxicity, organism-based, Sprague-Dawley
Set-up: regimen Daily Repeat, gender Male, age 6 weeks
Conditions: in vivo, po, route gavage; for APTT / Bas / Eos / Fbg / Ht / Lym / MCHC / MCV / Mono / RBC / Ret / WBC / Hb / Neu: tissue Blood; for KIDNEY_L / KIDNEY_R / KIDNEY_TOTAL: tissue Kidney; for ALP / ALT / AST / BUN / CRE / Ca / Cl / DBIL / GLC / IP / K / PL / RALB / TBIL / TC / TG / TP / gamma-GTP: tissue Plasma
[1] = 0 mg/kg, 72 h, dose level Control, time 3 day
[2] = 0 mg/kg, […], dose level Control, time 7 day
[3] = 0 mg/kg, […], dose level Control, time 14 day
[4] = 0 mg/kg, […], dose level Control, time 28 day
[5] = 20 mg/kg, 72 h, dose level Low, time 3 day
[6] = 20 mg/kg, […], dose level Low, time 7 day
[7] = 20 mg/kg, […], dose level Low, time 14 day
[8] = 20 mg/kg, […], dose level Low, time 28 day
[9] = 60 mg/kg, 72 h, dose level Middle, time 3 day

## CCCCC1C(=O)N(c2ccccc2)N(c2ccccc2)C1=O [PHENYLBUTAZONE]
[1]
  TERMINAL_BW: 239.7 g
  APTT: 16.9 s
  Bas: 0%
  Eos: 1%
  Fbg: 233.4 mg/dL
  Ht: 42.7%
  Lym: 81.6%
  MCHC: 33.3%
  MCV: 63.6 fL
  Mono: 5.6%
  RBC: 672.8 x10_4/ul
  Ret: 7.3%
  WBC: 131.2 x10_2/uL
  KIDNEY_L: 1.1 g
  KIDNEY_R: 1.1 g
  KIDNEY_TOTAL: 2.2 g
  ALP: 868 IU/L
  ALT: 35.2 IU/L
  AST: 61 IU/L
  BUN: 17.4 mg/dL
  CRE: 0.6 mg/dL
  Ca: 10.6 mg/dL
  Cl: 105 meq/L
  DBIL: 0 mg/dL
  GLC: 195.2 mg/dL
  IP: 9 mg/dL
  K: 5.1 meq/L
  PL: 170.6 mg/dL
  RALB: 4 g/dL
  TBIL: 0.3 mg/dL
  TC: 86.6 mg/dL
  TG: 136.4 mg/dL
  TP: 6.1 g/dL
  gamma-GTP: 1.6 IU/L
[2]
  TERMINAL_BW: 268.9 g
  APTT: 15.7 s
  Bas: 0%
  Eos: 0.8%
  Fbg: 242.2 mg/dL
  Hb: 13.9 g/dL
  Ht: 42.1%
  Lym: 84.2%
  MCHC: 33.1%
  MCV: 62.4 fL
  Mono: 6.6%
  Neu: 8.8%
  RBC: 674.8 x10_4/ul
  Ret: 5.4%
  WBC: 155.4 x10_2/uL
  KIDNEY_L: 1.2 g
  KIDNEY_R: 1.1 g
  KIDNEY_TOTAL: 2.3 g
  ALP: 919.6 IU/L
  ALT: 35.6 IU/L
  AST: 69 IU/L
  BUN: 18.8 mg/dL
  CRE: 0.5 mg/dL
  Ca: 10.6 mg/dL
  Cl: 105.4 meq/L
  DBIL: 0.006 mg/dL
  GLC: 210.8 mg/dL
  IP: 8.9 mg/dL
  K: 4.9 meq/L
  RALB: 3.9 g/dL
  TBIL: 0.3 mg/dL
  TC: 74.4 mg/dL
  TG: 112.6 mg/dL
  TP: 6.6 g/dL
  gamma-GTP: 1.8 IU/L
[3]
  TERMINAL_BW: 318.1 g
  APTT: 16.4 s
  Bas: 0%
  Eos: 0.6%
  Fbg: 227.8 mg/dL
  Hb: 15 g/dL
  Ht: 44.8%
  Lym: 84.8%
  MCHC: 33.6%
  MCV: 62.7 fL
  Mono: 4.2%
  Neu: 10.2%
  RBC: 714.8 x10_4/ul
  Ret: 4.4%
  WBC: 131.9 x10_2/uL
  KIDNEY_L: 1.2 g
  KIDNEY_R: 1.2 g
  KIDNEY_TOTAL: 2.3 g
  ALP: 748 IU/L
  ALT: 31.4 IU/L
  AST: 57.8 IU/L
  BUN: 19.6 mg/dL
  CRE: 0.6 mg/dL
  Ca: 10.5 mg/dL
  Cl: 108 meq/L
  DBIL: 0.016 mg/dL
  GLC: 207.4 mg/dL
  IP: 7.9 mg/dL
  K: 4.7 meq/L
  PL: 160.4 mg/dL
  RALB: 4 g/dL
  TBIL: 0.3 mg/dL
  TC: 79.2 mg/dL
  TG: 177.6 mg/dL
  TP: 6.2 g/dL
  gamma-GTP: 1.2 IU/L
[4]
  TERMINAL_BW: 373 g
  APTT: 16 s
  Bas: 0%
  Eos: 1%
  Fbg: 233 mg/dL
  Hb: 15.7 g/dL
  Ht: 46.9%
  Lym: 82.8%
  MCHC: 33.4%
  MCV: 56.2 fL
  Mono: 4.2%
  RBC: 835.8 x10_4/ul
  Ret: 2.1%
  WBC: 151.8 x10_2/uL
  KIDNEY_L: 1.4 g
  KIDNEY_R: 1.4 g
  KIDNEY_TOTAL: 2.7 g
  ALP: 692.8 IU/L
  ALT: 33 IU/L
  AST: 62 IU/L
  BUN: 20.2 mg/dL
  CRE: 0.6 mg/dL
  Ca: 10.1 mg/dL
  Cl: 107.6 meq/L
  DBIL: 0.008 mg/dL
  GLC: 200 mg/dL
  IP: 6.8 mg/dL
  K: 4.5 meq/L
  RALB: 3.9 g/dL
  TBIL: 0.3 mg/dL
  TC: 61 mg/dL
  TG: 170.2 mg/dL
  TP: 6.4 g/dL
  gamma-GTP: 2 IU/L
[5]
  TERMINAL_BW: 234.1 g
  APTT: 16.6 s
  Bas: 0%
  Eos: 1%
  Fbg: 220 mg/dL
  Ht: 42.6%
  Lym: 76.6%
  MCHC: 33.4%
  MCV: 66.3 fL
  Mono: 8.4%
  Neu: 14%
  RBC: 643.4 x10_4/ul
  Ret: 7.4%
  WBC: 137.6 x10_2/uL
  KIDNEY_L: 1 g
  KIDNEY_R: 1 g
  KIDNEY_TOTAL: 2 g
  ALP: 895.4 IU/L
  ALT: 37.2 IU/L
  AST: 63.2 IU/L
  BUN: 16 mg/dL
  CRE: 0.6 mg/dL
  Ca: 10.4 mg/dL
  Cl: 106.4 meq/L
  DBIL: 0 mg/dL
  GLC: 195.6 mg/dL
  IP: 8.1 mg/dL
  K: 4.9 meq/L
  PL: 170.4 mg/dL
  RALB: 4 g/dL
  TBIL: 0.3 mg/dL
  TC: 86.2 mg/dL
  TG: 125.8 mg/dL
  TP: 6 g/dL
  gamma-GTP: 1.6 IU/L
[6]
  TERMINAL_BW: 263.4 g
  APTT: 16.5 s
  Bas: 0%
  Eos: 0.8%
  Fbg: 229.8 mg/dL
  Hb: 14.3 g/dL
  Ht: 42.8%
  Lym: 85.2%
  MCHC: 33.5%
  MCV: 64.2 fL
  Mono: 5%
  Neu: 8.8%
  RBC: 668 x10_4/ul
  Ret: 5.4%
  KIDNEY_L: 1.2 g
  KIDNEY_R: 1.2 g
  KIDNEY_TOTAL: 2.4 g
  ALP: 882.4 IU/L
  ALT: 30 IU/L
  AST: 61.4 IU/L
  BUN: 18.6 mg/dL
  CRE: 0.5 mg/dL
  Ca: 10.5 mg/dL
  Cl: 105.8 meq/L
  DBIL: 0 mg/dL
  GLC: 193.6 mg/dL
  IP: 7.7 mg/dL
  K: 5.2 meq/L
  RALB: 4 g/dL
  TBIL: 0.3 mg/dL
  TC: 77 mg/dL
  TG: 119 mg/dL
  TP: 6.7 g/dL
  gamma-GTP: 1.4 IU/L
[7]
  TERMINAL_BW: 327.9 g
  APTT: 16.2 s
  Bas: 0%
  Eos: 0.8%
  Fbg: 226.8 mg/dL
  Hb: 14.8 g/dL
  Ht: 44.2%
  Lym: 85%
  MCHC: 33.5%
  MCV: 62.7 fL
  Mono: 4.4%
  Neu: 10%
  RBC: 705.2 x10_4/ul
  Ret: 5.1%
  WBC: 153 x10_2/uL
  KIDNEY_L: 1.3 g
  KIDNEY_R: 1.3 g
  KIDNEY_TOTAL: 2.6 g
  ALP: 735.2 IU/L
  ALT: 27.6 IU/L
  AST: 57.2 IU/L
  BUN: 20.4 mg/dL
  CRE: 0.6 mg/dL
  Ca: 10.8 mg/dL
  Cl: 107.6 meq/L
  DBIL: 0.002 mg/dL
  GLC: 201 mg/dL
  IP: 8.2 mg/dL
  K: 5 meq/L
  RALB: 4 g/dL
  TBIL: 0.3 mg/dL
  TC: 71 mg/dL
  TG: 165.4 mg/dL
  TP: 6.2 g/dL
  gamma-GTP: 1.2 IU/L
[8]
  TERMINAL_BW: 390.6 g
  APTT: 15.5 s
  Bas: 0%
  Eos: 0.4%
  Fbg: 239.4 mg/dL
  Hb: 15.3 g/dL
  Ht: 45.7%
  Lym: 85.4%
  MCHC: 33.5%
  MCV: 58.2 fL
  Mono: 4%
  RBC: 786.8 x10_4/ul
  Ret: 2.4%
  WBC: 138.6 x10_2/uL
  KIDNEY_L: 1.4 g
  KIDNEY_R: 1.4 g
  KIDNEY_TOTAL: 2.7 g
  ALP: 633.6 IU/L
  ALT: 31.6 IU/L
  AST: 57.8 IU/L
  BUN: 21 mg/dL
  CRE: 0.6 mg/dL
  Ca: 10.5 mg/dL
  Cl: 106.8 meq/L
  DBIL: 0.012 mg/dL
  GLC: 193.2 mg/dL
  IP: 7.3 mg/dL
  K: 4.3 meq/L
  RALB: 4.2 g/dL
  TBIL: 0.3 mg/dL
  TC: 65.2 mg/dL
  TG: 208.8 mg/dL
  TP: 6.5 g/dL
  gamma-GTP: 1.8 IU/L
[9]
  TERMINAL_BW: 231.9 g
  APTT: 17.3 s
  Bas: 0%

Source: ChEMBL document CHEMBL3885861, “Open TG-GATES”
